This note sets out measurements from PubChem BioAssay (NCI).

Among the test systems are A498 renal; ACHN renal; EKVX NSCLC; LOX IMVI melanoma; MOLT-4 leukemia; NCI-H23 lung; SK-MEL-2 melanoma; UACC-257 melanoma; UO-31 renal.
Holding throughout (experiment): NCI tumour cell line growth inhibition, 48 h

The structures appear in SMILES notation.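 96-well plates; 48 h exposure; 5 concentrations. Endpoints by linear interpolation between flanking doses. Not reached: highest tested concentration assigned. The concentration for 50% growth inhibition is given as GI50. TGI is the concentration that stops growth completely.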

Regarding `CC1(C)CC2=NOS3=C2C(=NO3)C1c1ccccn1` (stereo unspecified), the TGI in the assay with A498 renal is greater than 100 µM; with ACHN renal, greater than 100 µM; in the assay with EKVX NSCLC it was greater than 100 µM; with LOX IMVI melanoma it was greater than 100 µM; in the assay with MOLT-4 leukemia it was 95.6 µM; in the assay on NCI-H23 lung, greater than 100 µM. Further, the TGI in the assay with SK-MEL-2 melanoma, in the assay with UACC-257 melanoma and with UO-31 renal was greater than 100 µM throughout.
As for `Cn1cc(C(=O)/C(Cl)=C(\Cl)C(=O)O)c2ccccc21`, the TGI in the assay with A498 renal, in the assay on ACHN renal, in the assay on EKVX NSCLC, in the assay on MOLT-4 leukemia, in the assay on NCI-H23 lung and in the assay on SK-MEL-2 melanoma was greater than 100 µM in each case. Further, the TGI in the assay with UACC-257 melanoma and with UO-31 renal was greater than 100 µM throughout.
Consider `C/C=C/CP(=O)(c1ccccc1)c1ccccc1`, for which the TGI with A498 renal, in the assay on ACHN renal, in the assay on EKVX NSCLC, in the assay with LOX IMVI melanoma, in the assay on MOLT-4 leukemia and in the assay with NCI-H23 lung was greater than 100 µM in each case. For the same molecule, the TGI in the assay on SK-MEL-2 melanoma, in the assay on UACC-257 melanoma and in the assay with UO-31 renal was greater than 100 µM throughout.
As to `O=C(CC1(O)C(=O)Nc2ccccc21)c1ccc(O)cc1O` (stereo unspecified), the TGI in the assay with A498 renal, in the assay on ACHN renal, in the assay on EKVX NSCLC, with LOX IMVI melanoma, in the assay with MOLT-4 leukemia and in the assay on NCI-H23 lung was greater than 100 µM each time. In addition, the TGI in the assay with SK-MEL-2 melanoma, with UACC-257 melanoma and with UO-31 renal was greater than 100 µM in each case.
`NC1=NN(c2ccccc2)C(=O)C1C(=O)C(=O)Nc1cccc(C(F)(F)F)c1` (stereo unspecified): the TGI in the assay with A498 renal, with ACHN renal, in the assay with EKVX NSCLC, with LOX IMVI melanoma, with MOLT-4 leukemia and in the assay with NCI-H23 lung was greater than 100 µM in each case. Moreover, the TGI with SK-MEL-2 melanoma, in the assay with UACC-257 melanoma and in the assay on UO-31 renal was greater than 100 µM each time.
As to `C[C@]12CC[C@H]3[C@@H](CC=C4C[C@@H](O)CC[C@@]43C)[C@@H]1C/C(=C\c1cccc(OCCCn3ccnc3)c1)[C@@H]2O`, the GI50 in the assay with A498 renal was 13.4 µM; in the assay with ACHN renal, 13.9 µM; with EKVX NSCLC it was 13.5 µM; in the assay with LOX IMVI melanoma, 15.7 µM; with MOLT-4 leukemia it was 6.55 µM; in the assay on NCI-H23 lung, 13 µM. For the same molecule, the values for the GI50 with SK-MEL-2 melanoma, in the assay on UACC-257 melanoma and in the assay on UO-31 renal were 17.4 µM, 13.1 µM and 13 µM, respectively. In addition, the TGI in the assay with A498 renal is 26.8 µM; in the assay with ACHN renal it was 31.3 µM; in the assay on EKVX NSCLC, 33.9 µM; in the assay with LOX IMVI melanoma, 39.6 µM; in the assay with MOLT-4 leukemia, 32.2 µM; in the assay on NCI-H23 lung, 30.1 µM. Besides, the values for the TGI with SK-MEL-2 melanoma, in the assay with UACC-257 melanoma and with UO-31 renal were 33.6 µM, 29.2 µM and 28.3 µM, respectively.
Regarding `O=C(Nc1ccc(N=Nc2ccccc2)cc1)Sc1ccccc1C(=O)O`, the TGI in the assay with A498 renal, in the assay on ACHN renal, in the assay on EKVX NSCLC, in the assay on LOX IMVI melanoma, with MOLT-4 leukemia and in the assay on NCI-H23 lung was greater than 100 µM in each case. The TGI in the assay on SK-MEL-2 melanoma, in the assay with UACC-257 melanoma and in the assay with UO-31 renal was greater than 100 µM throughout.
As to `O[C@H]1[C@H]2[C@H](O)CCCN2C[C@H]1O`, the TGI in the assay on A498 renal, in the assay on ACHN renal, with EKVX NSCLC, with LOX IMVI melanoma, in the assay with MOLT-4 leukemia and with NCI-H23 lung was greater than 100 µM in each case. Besides, the TGI with SK-MEL-2 melanoma, in the assay on UACC-257 melanoma and in the assay with UO-31 renal was greater than 100 µM throughout.
For the molecule `COc1ccc(/C(Cl)=C(\C=O)c2cc(OC)c(OC)c(OC)c2)cc1OC`, the TGI in the assay with A498 renal was greater than 90.3 µM; in the assay with ACHN renal, greater than 100 µM; in the assay with EKVX NSCLC, greater than 100 µM; in the assay with LOX IMVI melanoma it was greater than 100 µM; with MOLT-4 leukemia, greater than 100 µM; with NCI-H23 lung it was greater than 100 µM. Besides, the figures for the TGI in the assay on SK-MEL-2 melanoma, in the assay with UACC-257 melanoma and in the assay on UO-31 renal were greater than 90.5 µM, greater than 100 µM and greater than 100 µM, respectively.
Regarding `COC1=CC(C)C2C[C@H]3O[C@H](O)C[C@H]4C(C)C(=O)C(O)C([C@@]2(C)C1=O)[C@@]34C` (stereo partly specified), the TGI with A498 renal, with ACHN renal, with EKVX NSCLC, in the assay on LOX IMVI melanoma, in the assay with MOLT-4 leukemia and in the assay on NCI-H23 lung was greater than 100 µM throughout. Moreover, the TGI with UACC-257 melanoma and in the assay with UO-31 renal was greater than 100 µM throughout.
Consider `N#Cc1c(C(N)=O)ncn1Cc1ccccc1`, for which the TGI in the assay with A498 renal, with ACHN renal, with EKVX NSCLC, in the assay with LOX IMVI melanoma, with MOLT-4 leukemia and with NCI-H23 lung was greater than 100 µM each time. Further, the TGI in the assay on SK-MEL-2 melanoma, in the assay with UACC-257 melanoma and in the assay on UO-31 renal was greater than 100 µM in each case.
For `O=C1CC(c2ccccc2)NCN1` (stereo unspecified), the TGI in the assay on A498 renal, in the assay on ACHN renal, in the assay on EKVX NSCLC, in the assay on LOX IMVI melanoma, in the assay on MOLT-4 leukemia and with NCI-H23 lung was greater than 100 µM throughout. The TGI in the assay on SK-MEL-2 melanoma, in the assay with UACC-257 melanoma and in the assay with UO-31 renal was greater than 100 µM in each case.
On to `O=C(/C=C/c1ccc2c(c1)OCO2)c1ccccc1`, for which the GI50 in the assay on A498 renal is 12.4 µM; in the assay on ACHN renal it was 17.5 µM; with EKVX NSCLC, 15.1 µM; in the assay with LOX IMVI melanoma, 12.6 µM; in the assay on MOLT-4 leukemia it was 8.09 µM; in the assay on NCI-H23 lung, 17.4 µM. The results for the GI50 in the assay on UACC-257 melanoma and with UO-31 renal were 18.6 µM and 4.19 µM, respectively. Moreover, the TGI with A498 renal was 25.4 µM; in the assay with ACHN renal, 40.9 µM; in the assay with EKVX NSCLC it was 31.1 µM; with LOX IMVI melanoma it was 25.9 µM; in the assay on MOLT-4 leukemia it was greater than 100 µM; in the assay with NCI-H23 lung it was 38.6 µM. For the same molecule, the figures for the TGI in the assay with UACC-257 melanoma and in the assay with UO-31 renal were 39.5 µM and 18.9 µM, respectively.
